# Laboratory results taken from patent US6864285B1, “Covalent derivatives of alkanolamides of monocarboxylic and dicarboxylic acids functionally active on the CB2 cannabinoid receptor” (Innovet Italia S.r.l., priority 1999, dated 2005).
# Like-named read-outs stand apart in the source and are kept apart here.
# Assays:
# [1] = Solubility in water and in organic solvents (chemical and physical characteristics); details: for solubility in water: in words
# [2] = Lipid/water partition parameter RM from thin-film chromatography on silica gel; assay type: physicochemical; details: for ΔRM solvent 1 / RM solvent 1 / RF solvent 1: Solvent 1: 100% ethyl acetate; for ΔRM solvent 1 / ΔRM solvent 2: RM of derivative minus RM of corresponding alkanolamide; for RM solvent 1 / RM solvent 2: RM=log (1/Rf−1); for RF solvent 1 / RF solvent 2: silica gel; for ΔRM solvent 2 / RM solvent 2 / RF solvent 2: Solvent 2: heptane:isopropanol:ethyl acetate:H2O 40:20:50:2
# Procedure: The chemical and physical characteristics of the derivatives according to the invention were evaluated by quantitative measurement of the lipid/water partition parameter.
# A useful parameter for evaluating the properties of a compound in relation to its possible absorption is in fact constituted by the coefficient of partition between the lipid phase and the aqueous phase, which is considered to be an expression of its lipophilicity and its degree of hydrophilicity. […] For the purpose of evaluating the characteristics of the derivatives of the invention, the partition parameter RM between the lipid and the aqueous phase, extrapolated from thin-film partition chromatography, was calculated; this parameter is commonly used to evaluate the lipophilic characteristics of compounds (Tomlinson E. J. Chromatogr. 1975, 113, 1) and is commonly used, for example, for local anaesthetics, in which a correlation has been shown between this parameter and biological activity (Bachrata M. et al. J. Chromatogr. 1979, 171, 29-36).
# The partition parameter RM between the lipid phase and the aqueous phase was calculated both for the derivatives and for the non-substituted alkanolamides, from the Rf value obtained by thin-film chromatography on silica gel (particles of […], mean porosity 60 Å, thickness 0.25 mm on glass plate) in accordance with the formula: RM=log (1/Rf−1) and the ΔRM was obtained from the difference between the RM coefficients of the derivative and of the corresponding alkanolamide.
# CB1 receptor = target: T1, CB1 receptor (Mus musculus, UniProt P47746); experiment: Binding of [3H]SR141716A to membranes of N18TG2 cells; details: cell membranes, 300 pM ligand, 90' at 30° C.; read-out: Ki CB1 Receptor N18TG2 cells Lig. [3H]SR141716A
# T1 construct: endogenous in cells; host or cells: mouse N18TG2 neuroblastoma cells
# T1 sequence (P47746 whole entry): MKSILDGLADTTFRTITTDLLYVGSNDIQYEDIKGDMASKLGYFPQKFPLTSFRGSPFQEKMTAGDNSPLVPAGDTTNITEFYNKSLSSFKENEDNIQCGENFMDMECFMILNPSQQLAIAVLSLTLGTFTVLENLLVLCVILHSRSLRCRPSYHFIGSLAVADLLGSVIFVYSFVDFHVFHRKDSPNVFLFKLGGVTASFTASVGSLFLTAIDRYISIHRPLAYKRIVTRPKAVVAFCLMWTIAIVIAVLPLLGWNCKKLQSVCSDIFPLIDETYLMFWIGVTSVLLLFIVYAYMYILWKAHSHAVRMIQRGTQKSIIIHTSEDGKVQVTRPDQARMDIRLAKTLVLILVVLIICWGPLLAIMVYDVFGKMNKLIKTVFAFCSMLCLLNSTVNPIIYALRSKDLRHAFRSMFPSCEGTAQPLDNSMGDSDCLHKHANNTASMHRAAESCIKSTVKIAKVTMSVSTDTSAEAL
# Text: (§1) Effect of alkanolamide molecules on the binding of the synthetic ligands of the CB2 and CB1 cannabinoid receptors, respectively.
# (§2) Rat RBL-2H3+ leukemic basophilic cells, which selectively express the cannabinoid CB2 receptor, and mouse N18TG2 neuroblastoma cells which selectively express the CB1 cannabinoid receptor were used. The cells were cultivated as described above (Facci L. et al. (1995) Proc. Natl: Acad: Sci. U.S.A. 92:: 3376-3380; Bisogno T. et al. 1997 J. Biol. Chem., 272: 3315-3323). WIN 55,212.2 was used as the selectively agonist synthetic ligand for the CB2 receptor.
# SR141716A was used as the selective antagonist for the CB1 receptor.
# (§3) [^3H]SR141716A (55 Ci/mmol) was supplied by Amersham; [^3H]WIN55,212-2 (43 Ci/mmol) was supplied by NEN. The binding tests were performed with membranes of the cells resuspended in 50 mMol Tris pH 7.0 buffer; 2.5 mMol MgCl2, 0.8 mMol EDTA; 0.05% bovine serum albumin (BSA); 0.01% ethanol, in the presence of 100 μM of phenyl-methyl-sulphonyl fluoride (PMSF-Sigma), with the use, of 300 pM of [^3H]SR141716A and of [^3H]WIN55,212-2, respectively, as the ligand.
# (§4) The membranes were incubated for 90′ at 30° C. and filtered on glass microfibre filters (GFC-Whatman) and the radioactivity was detected by liquid scintillation. The specific binding was calculated with the use of either 10 μM SR141716A or 10 μM HU-210.
# (§5) The Ki values were calculated by Chang-Prusoff's equation and expressed as concentration μM.
# CB2 receptor [3] = target: T2, CB2 receptor (Rattus norvegicus, UniProt Q9QZN9); experiment: Binding of [3H]WIN55,212-2 to membranes of RBL-2H3+ cells; details: cell membranes, 300 pM ligand, 90' at 30° C.; read-out: Ki CB2 receptor RBL-2H3 + cells Lig. [3H]WIN55, 212-2
# T2 construct: endogenous in cells; host or cells: rat RBL-2H3+ leukemic basophilic cells
# T2 sequence (Q9QZN9 1-360): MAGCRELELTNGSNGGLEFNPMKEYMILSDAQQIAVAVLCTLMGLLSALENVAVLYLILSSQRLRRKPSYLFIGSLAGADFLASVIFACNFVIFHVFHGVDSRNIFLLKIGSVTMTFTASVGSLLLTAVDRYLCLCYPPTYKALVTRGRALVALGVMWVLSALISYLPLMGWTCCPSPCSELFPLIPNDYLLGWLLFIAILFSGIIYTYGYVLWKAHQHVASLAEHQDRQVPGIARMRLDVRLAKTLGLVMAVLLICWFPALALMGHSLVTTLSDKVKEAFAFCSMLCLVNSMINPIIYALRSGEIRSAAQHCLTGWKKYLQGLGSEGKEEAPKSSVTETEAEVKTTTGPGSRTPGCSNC
# Text: as §1, §2
# HU-210 was used as the selective […] for the CB2 receptor.
# as §3, §4, §5
# CB2 receptor [4] = target: T2, CB2 receptor; experiment: Stimulation of cyclic AMP (cAMP) by forskolin in RBL-2H3+ cells; assay type: cell-based; details: 1 μM forskolin
# Procedure: Effect of alkanolamide molecules on the stimulation of cyclic AMP (cAMP) by forskolin.
# The tests were performed with the aim of checking whether the binding of the molecules of the present invention to the CB2 receptor has functional significance.
# It is in fact known that the function activation of the CB2 receptor brings about, at intracellular level, inhibition of the enzymatic activity of adenylate cyclase and a reduction in the levels of the second-messenger cAMP, resulting in an increase in the conductance of the channels to potassium and an inhibition of proteic phosphorylation (Childers S. R. et al. Biochem. Parmacol. 1996, 52: 819-827).
# The dosages of cAMP were performed on RBL-2H3+ cells flowing together in Petri dishes with six wells (Falcon); the cells were stimulated for 10′ at 37° C. with 1 μM of forskolin (Fluka) in 400 μl of medium without serum, containing 20 mM HEPES, 0.1 mg/ml BSA and 0.1 mM 1-methyl-3-isobutyl xanthine (Sigma) and either ethanol or alkanolamide molecules with or without the addition of HU-210. After incubation, the cells were extracted and the levels of cAMP were evaluated with a suitable Amersham kit in accordance with the producer's method. The data were expressed in IC50 μM.
# [5] = ethanol, organic solvent or mixture
# [6] = ethyl acetate, organic solvent or mixture
# [7] = n-octanol, organic solvent or mixture
Compound,solubility in water [1],ΔRM solvent 1 [2],RM solvent 1 [2],RF solvent 1 [2],ΔRM solvent 2 [2],RM solvent 2 [2],RF solvent 2 [2],Ki (CB1 receptor) [µM],Ki (CB2 receptor [3]) [µM],solubility (physchem; [5]) [µg/mL],solubility in organic solvents: ethanol [1],also measured
"CCCCCCCCCCCCCCCC(=O)NCCOC(=O)OCC [Example 1, N-[2-(ethoxycarbonyl)oxyethyl]hexadecanamide]",slightly soluble,−1.001,−0.213,0.62,−0.403,−0.368,0.70,> 15,0.006 ± 0.0018,10000,,solubility (physchem; [6]): 10000 µg/mL; solubility (physchem; [7]): 10000 µg/mL
"CCCCCCCCCCCCCCCC(=O)NCCOC(=O)OCC(C)C [Example 2, N-[2-(isobutyloxycarbonyl)oxyethyl] hexadecanamide]",slightly soluble,−1.076,−0.288,0.66,−0.467,−0.432,0.73,,,10000,,solubility (physchem; [6]): 1000 µg/mL; solubility (physchem; [7]): 10000 µg/mL
"CCCCCCCCCCCCCCCC(=O)NCCCOC(=O)OCC [Example 3, N-[3-(ethoxycarbonyl)oxypropyl]hexadecanamide]",slightly soluble,−1.020,−0.194,0.61,−0.397,−0.327,0.68,,,10000,,solubility (physchem; [6]): 10000 µg/mL; solubility (physchem; [7]): 10000 µg/mL
CCCCCCCCCCCCCCCC(=O)NCCOC(=O)NCc1ccccc1 [Example 5],slightly soluble,−0.736,0.052,0.47,−0.304,−0.269,0.65,,,,,"solubility in organic solvents: ethyl acetate, hot ([1]; ethyl acetate, hot): 10 mg/ml in ethyl; solubility in organic solvents: n-octanol, hot ([1]; n-octanol, hot): 10 mg/ml in ethyl"
"CCCCCCCCCCCCCCCC(=O)NCCOC(=O)OCCN1CCCCC1 [Example 7, N-[2-[(2-piperidinoethoxy)carbonyl]oxyethyl] hexadecanamide]",slightly soluble,0.49,1.28,0.05,,,,> 15,0.009 ± 0.0025,10000,,
"CCCCCCCCCCCCCCCC(=O)NCCOC(=O)OCCN1CCCCC1.CS(=O)(=O)O [Example 8, N-[2-[(2-piperidinoethoxy)carbonyl]oxyethyl] hexadecanamide methane sulphonate]",,,,,,,,,,10000,,"solubility (physchem; DMSO, organic solvent or mixture): 10000 µg/mL; solubility (physchem; water): 10000 µg/mL"
"CCCCCCCCCCCCCCCC(=O)NCCOC1CCCO1 (centres unmarked) [Example 9, tetrahydrofuranyl ether of N-(2-hydroxyethyl) hexadecanamide]",slightly soluble,−0.630,0.158,0.41,−0.247,−0.213,0.62,,,,10 mg/ml in ethanol,
"O=C(CCCCCCCC(=O)NCCOC1CCCO1)NCCOC1CCCO1 (centres unmarked) [Example 10, tetrahydrofuranyl ether of N,N^1-bis(2-hydroxyethyl) nonandiamide]",,−0.424,−0.035,0.52,−0.584,0.105,0.44,,,,10 mg/ml in ethanol,
"CCCCCCCCCCCCCCCC(=O)NCCOC1CCCCO1 (centres unmarked) [Example 11, tetrahydropyranyl ether of N-(2-hydroxyethyl) hexadecanamide]",slightly soluble,0.666,0.122,0.43,−0.304,−0.269,0.65,,,,,solubility in organic solvents: ethyl acetate ([1]; ethyl acetate): 10 mg/ml in ethyl; solubility in organic solvents: n-octanol ([1]; n-octanol): 10 mg/ml in ethyl
"O=C(CCCCCCCC(=O)NCCOC1CCCCO1)NCCOC1CCCCO1 (centres unmarked) [Example 12, tetrahydropyranyl ether of N,N^1-bis(2-hydroxyethyl) nonandiamide]",,−0.494,−0.105,0.56,−0.706,−0.017,0.51,,,,10 mg/ml in ethanol,
"CCCCCCCC/C=C\CCCCCCCC(=O)NCCOC(=O)OCC [Example 13, N-[2-(ethoxycarbonyl)oxyethyl] oleoylamide]",slightly soluble,−0.984,−0.231,0.63,−0.365,−0.347,0.69,,,,"10 mg/ml in ethanol,",
"CCCCC1C(=O)N(c2ccccc2)N(c2ccccc2)C1=O [phenyl butazone, reference compound]",,,,,,,,> 15,> 15,,,
"N,N^1-bis[2-(ethoxycarbonyl)oxyethyl] nonandiamide [Example 4]",slightly soluble,−0.866,−0.477,0.75,−0.723,−0.035,0.52,> 15,0.002 ± 0.0009,,"10 mg/ml in ethanol,","IC50 (CB2 receptor [4]; 10' at 37° C., read-out: IC50 on forskolin-stimulated cAMP): 1.8 µM; IC50 (CB2 receptor [4]; + HU-210 (0.5 μM), read-out: IC50 on forskolin-stimulated cAMP with HU-210): > 20 µM"
